In US20240368133A1, “Compounds for the Treatment of Pain, in Particular, Neuropathic Pain, and/or Other Diseases or Disorders that are Associated with AT2R and/or AT2R Mediated Signaling” (Confo Therapeutics N.V., priority 2021, published 2024):

Key:
human AT2R fused to Cb23 = human AT2R fused to Cb23 (Homo sapiens, UniProt P50052); test: Radioligand binding assay, displacement of 125I-[Sar1, Ile8]-Angiotensin II, hAT2R Cb23; details: displacement of 125I-[Sar1, Ile8]-Angiotensin II, human AT2R fused to Cb23, HEK-293 cell membrane preparations; read-out: Binding affinity on hAT2R_Cb23 IC50
Method in brief: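 Membranes from HEK-293 cells expressing human AT2R fused to Cb23 were incubated with 0.05 nM 125I-[Sar1, Ile8]-Angiotensin II in 100 μL buffer (50 mM Tris, 5 mM MgCl2, 1 mM EDTA, 0.1% BSA, pH 7.4) for one hour at 25° C. Ligands were tested as eight-point dose-response curves in duplicate, with C21 and Angiotensin II as references.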

human AT1R = human AT1R (Homo sapiens (Human), UniProt P30556); test: Counterscreen radioligand binding assay, displacement of 125I-[Sar1, Ile8]-Angiotensin II, hAT1R WT; details: 125I-[Sar1, Ile8]-Ang II, semi-quantitative score; for inhibition at 1 µM: compound at 1 μM, read-out: % Displaced radioligand at 1 μM; for inhibition at 10 µM: compound at 10 μM, read-out: % Displaced radioligand at 10 μM
Method in brief: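 Compounds displaced 0.05 nM 125I-[Sar1, Ile8]-Ang II from human AT1R in HEK-293 membranes (1 h, 25° C; Tris/MgCl2/EDTA/BSA buffer, pH 7.4). Readout was filtration and scintillation counting, with non-specific binding set by 10 μM [Sar1]-Ang II. Values are % displacement at 1 μM and […], or IC50 from eight-point four-parameter fits.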

Chain of human AT2R fused to Cb23 (P50052 whole entry, looked up, the tested form may be a part): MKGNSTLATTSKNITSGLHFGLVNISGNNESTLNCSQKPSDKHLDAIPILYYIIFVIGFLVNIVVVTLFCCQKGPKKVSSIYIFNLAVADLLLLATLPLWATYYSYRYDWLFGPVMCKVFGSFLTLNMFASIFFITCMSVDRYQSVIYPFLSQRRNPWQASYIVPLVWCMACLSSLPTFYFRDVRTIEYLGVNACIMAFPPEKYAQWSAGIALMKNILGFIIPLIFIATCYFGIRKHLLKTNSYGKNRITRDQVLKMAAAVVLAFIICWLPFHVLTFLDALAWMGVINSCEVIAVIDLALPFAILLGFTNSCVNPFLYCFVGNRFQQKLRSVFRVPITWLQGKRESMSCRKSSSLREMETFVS
Chain of human AT1R (P30556 whole entry): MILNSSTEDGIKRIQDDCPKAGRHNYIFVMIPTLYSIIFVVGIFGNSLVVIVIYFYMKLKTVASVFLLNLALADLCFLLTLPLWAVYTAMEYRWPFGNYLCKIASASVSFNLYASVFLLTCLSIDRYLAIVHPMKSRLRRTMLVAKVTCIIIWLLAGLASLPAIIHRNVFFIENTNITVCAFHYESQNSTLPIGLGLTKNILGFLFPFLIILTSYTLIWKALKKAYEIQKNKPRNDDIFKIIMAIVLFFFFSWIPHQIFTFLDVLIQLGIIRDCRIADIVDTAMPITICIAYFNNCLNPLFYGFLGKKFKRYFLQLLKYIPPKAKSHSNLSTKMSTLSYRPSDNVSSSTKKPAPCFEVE

Row | Compound | IC50 (human AT2R fused to Cb23) [nM] | inhibition at 1 µM (human AT1R) [%] | inhibition at 10 µM (human AT1R) [%]
1 | CC(C)Cc1cc(N2CCN(Cc3nc4ccccc4c(=O)[nH]3)CC2)c(-c2nn[nH]n2)cc1F [Compound A-153, 2-[[4-[4-fluoro-5-isobutyl-2-(2H-tetrazol-5-yl)phen-yl]piperazin-1-yl]-methyl]-3H-quin-azolin-4-one] | 8420 | < 30 | < 30
2 | CC(C)Cc1cc(F)c(-c2nn[nH]n2)c(N2CCN(Cc3nc4ccccc4c(=O)[nH]3)CC2)c1 [Compound A-154, 2-[[4-[3-fluoro-5-isobutyl-2-(2H-tetrazol-5-yl)phen-yl]piperazin-1-yl]-methyl]-3H-quin-azolin-4-one] | 160 | < 30 | < 30
3 | CCc1cc(OC(C)C)cc(N2CCN(Cc3cccnn3)CC2)c1-c1nn[nH]n1 [Compound A-159, 3-[[4-[3-ethyl-5-isopropoxy-2-(2H-tetrazol-5-yl)phen-yl]piperazin-1-yl]-methyl]pyridazine] | 3080 | < 30 | < 30
4 | CC(C)Oc1cc(N2CCN(Cc3cccnn3)CC2)c(-c2nn[nH]n2)cc1C1CC1 [Compound A-160, 3-[[4-[4-cycloprop-yl-5-isopropoxy-2-(2H-tetrazol-5-yl)-phenyl]piperazin-1-yl]methyl]pyrid-azine] | 4940 | < 30 | < 30
5 | CC(C)Oc1cc(C2CC2)c(-c2nn[nH]n2)c(N2CCN(Cc3cccnn3)CC2)c1 [Compound A-161, 3-[[4-[3-cycloprop-yl-5-isopropoxy-2-(2H-tetrazol-5-yl)-phenyl]piperazin-1-yl]methyl]pyrid-azine] | 1460 | < 30 | < 30
6 | CC(C)Cc1cc(N2CCN(Cc3cccnn3)CC2)c(-c2nn[nH]n2)cc1F [Compound A-163, 3-[[4-[4-fluoro-5-isobutyl-2-(2H-tetrazol-5-yl)phen-yl]piperazin-1-yl]-methyl]pyridazine] | 3320 | < 30 | < 30
7 | CC(C)Cc1cc(F)c(-c2nn[nH]n2)c(N2CCN(Cc3cccnn3)CC2)c1 [Compound A-164, 3-[[4-[3-fluoro-5-isobutyl-2-(2H-tetrazol-5-yl)phen-yl]piperazin-1-yl]-methyl]pyridazine] | 1300 | < 30 | < 30
8 | CC(C)Cc1ccc(-c2nn[nH]n2)c(N2CCN(Cc3cccnn3)CC2)c1F [Compound A-165, 3-[[4-[2-fluoro-3-isobutyl-6-(2H-tetrazol-5-yl)phen-yl]piperazin-1-yl]-methyl]pyridazine] | 681 | < 30 | < 30
9 | Cc1cc(CC(C)C)cc(N2CCN(Cc3cccnn3)CC2)c1-c1nn[nH]n1 [Compound A-167, 3-[[4-[5-isobutyl-3-methyl-2-(2H-tetrazol-5-yl)phen-yl]piperazin-1-yl]-methyl]pyridazine] | 32.6 | < 30 | < 30
10 | CC(C)Cc1cc(C2CC2)c(-c2nn[nH]n2)c(N2CCN(Cc3cccnn3)CC2)c1 [Compound A-169, 3-[[4-[3-cycloprop-yl-5-isobutyl-2-(2H-tetrazol-5-yl)phen-yl]piperazin-1-yl]-methyl]pyridazine] | 25.3 | < 30 | < 30
11 | CNc1cc(-c2nn[nH]n2)c(N2CCN(Cc3cccnn3)CC2)cc1CC(C)C [Compound A-170, 2-isobutyl-N-meth-yl-4-[4-(pyridazin-3-ylmethyl)piper-azin-1-yl]-5-(2H-tetrazol-5-yl)aniline] | 12100 | < 30 | < 30
12 | CNc1cc(CC(C)C)cc(N2CCN(Cc3cccnn3)CC2)c1-c1nn[nH]n1 [Compound A-171, 5-isobutyl-N-meth-yl-3-[4-(pyridazin-3-ylmethyl)piper-azin-1-yl]-2-(2H-tetrazol-5-yl)aniline] | 15.8 | < 30 | < 30
13 | CCNc1cc(-c2nn[nH]n2)c(N2CCN(Cc3cccnn3)CC2)cc1CC(C)C [Compound A-172, N-ethyl-2-isobutyl-4-[4-(pyridazin-3-ylmethyl)piperazin-1-yl]-5-(2H-tetrazol-5-yl)aniline] | 3520 | < 30 | < 30
14 | CC(C)Cc1cc(F)c(-c2nn[nH]n2)c(N2CCN(Cc3cccnn3)[C@H](C)C2)c1 [Compound A-175, 3-[[(2R)-4-[3-fluoro-5-isobutyl-2-(2H-tetrazol-5-yl)phenyl]-2-meth-yl-piperazin-1-yl]-methyl]pyridazine] | 322 | < 30 | < 30
15 | CC(C)Cc1ccc(-c2nn[nH]n2)c(N2CCN(Cc3cccnn3)[C@@H](C)C2)c1F [Compound A-176, 3-[[(2S)-4-[2-fluoro-3-isobutyl-6-(2H-tetrazol-5-yl)phenyl]-2-methyl-piperazin-1-yl]methyl]pyridazine] | 28.7 | < 30 | < 30
16 | CC(C)Cc1cnc(-c2nn[nH]n2)c(N2CCN(Cc3cccnn3)[C@@H](C)C2)c1 [Compound A-177, 3-[[(2S)-4-[5-isobutyl-2-(2H-tetrazol-5-yl)-3-pyridyl]-2-methyl-piperazin-1-yl]methyl]pyridazine] | 585 | < 30 | < 30
17 | CC(C)Cc1cc(F)c(-c2nn[nH]n2)c(N2CCN(Cc3cccnn3)C(C(C)C)C2)c1 (stereo not drawn) [Compound A-179, 3-[[4-[3-fluoro-5-isobutyl-2-(2H-tetrazol-5-yl)phenyl]-2-isopropyl-piperazin-1-yl]methyl]pyridazine] | 953 | < 30 | < 30
18 | CC(C)Cc1cc(F)c(-c2nn[nH]n2)c(N2CCN(Cc3cccnn3)CC2C)c1 (stereo not drawn) [Compound A-180, 3-[[4-[3-fluoro-5-isobutyl-2-(2H-tetrazol-5-yl)phenyl]-3-methyl-piperazin-1-yl]methyl]pyridazine] | 3.95 | < 30 | < 30
19 | CC(C)Cc1cc(F)c(-c2nn[nH]n2)c(N2CCN(Cc3cccnn3)C(C)(C)C2)c1 [Compound A-182, 3-[[4-[3-fluoro-5-isobutyl-2-(2H-tetrazol-5-yl)phenyl]-2,2-dimethyl-piperazin-1-yl]methyl]pyridazine] | 18.6 | < 30 | < 30
20 | CC(C)Cc1cc(F)c(-c2nn[nH]n2)c(N2C[C@@H](C)N(Cc3cccnn3)[C@H](C)C2)c1 [Compound A-185, 3-[[(2R,6R)-4-[3-fluoro-5-isobutyl-2-(2H-tetrazol-5-yl)-phenyl]-2,6-dimeth-yl-piperazin-1-yl]-methyl]pyridazine] | 69.6 | < 30 | < 30
21 | CC(C)Cc1cc(F)c(-c2nn[nH]n2)c(N2C[C@@H](C)N(Cc3cccnn3)[C@@H](C)C2)c1 [Compound A-186, 3-[[(2S,6R)-4-[3-fluoro-5-isobutyl-2-(2H-tetrazol-5-yl)-phenyl]-2,6-dimeth-yl-piperazin-1-yl]-methyl]pyridazine] | 18.3 | < 30 | < 30
